Assay results published in patent publication US8080379B2, “Branched and multi-chain nucleic acid switches for sensing and screening” (Syracuse University, priority 2004, dated 2011).

Columns and labels:
NCp7 [1] = biological target: T1, NCp7 (Human immunodeficiency virus type 1 group M subtype B, UniProt P12493); conditions: read-out: Kd′, single binding constant fit of FRET titration; Nt≅10 nM; emission at 517 nm
Experimental: FRET-monitored titration of the C3 (SEQ ID NO: 7) (Nt≅10 nM). [NCp7] increases left to right, expressed as the ratio Pt/Nt. The emission at 517 nm is reported after subtracting that of the RNase treated sample. […] Uncertainty in Nt limits the precision of this determination.
A fluorophore is placed at the 5′-end of the chain (*), and a quencher at the location marked Q. The distance between fluorophore and quencher is much larger in H than in O, so H has much stronger fluorescence.

[2] = H/O conformational equilibrium of the C3 switch by fluorescence; assay type: physicochemical; conditions: no protein
Source text: Such “molecular beacons” operate on the principle of FRET.
It is appropriate to examine the two extreme states in FIG. 11 (sequences M1 and M2 in Table 2). This allows evaluation of the position of the K1 equilibrium shift upon changing the sequence. Simply put, the luminescence of pure H and O are known, so their populations in a mixed system are just linear functions of the measured luminescence.

NC = NC (Human immunodeficiency virus type 1 group M subtype B, UniProt P12493); conditions: cited from earlier work
NCp7 [3] = biological target: T1, NCp7; conditions: 10 nM concentration of the switch

C3: unimolecular bistable RNA/DNA switch, SEQ ID NO: 7, with FAM fluorophore and Dabsyl quencher (GCTATCCACCGATAGCTCCAACACGCUAGCGGUGGCUAGC; RNA/DNA chimera, FAM fluorophore and Dabsyl quencher, positions not given here)
Kd (NCp7 [1]): 500 nM
K1 = [O]/[H] [2]: 0.08

c(F-C-dW-R-C-K)
competition with NC for in vitro recognition of its RNA, DNA and protein targets (NC): competes with NC

B1: M3: tethered duplex of all-DNA chain SEQ ID NO: 3 and DNA/RNA chimeric chain SEQ ID NO: 6 (nucleic acid)
chain 1: GCTATCCACCGATAGCTCACAGCACGACTCAGATGG
chain 2: CCATCTGAGTCGTGCACGCUAGCGGUGGCUAGC
modifications: chain 1: DNA, backbone not given here; chain 2: chemistry not given here; strands tethered, second strand DNA/RNA chimera
time of equilibration with NCp7 (NCp7 [3]): within a minute
